Reference: patent US20160075682A1, “INHIBITORS OF NICOTINAMIDE PHOSPHORIBOSYLTRANSFERASE, COMPOSITIONS, PRODUCTS AND USES THEREOF” (UNIVERSITÀ DEGLI STUDI DEL PIEMONTE ORIENTALE "AMEDEO …, priority 2013, published 2016)

Legend:
NAMPT = target: T1, NAMPT (Homo sapiens, UniProt P43490); test: Direct inhibition of NAMPT enzymatic activity (Cyclex NAMPT colorimetric Assay Kit); type: biochemical; details: as assessed with a cycling assay
T1 construct: endogenous in cells; host or cells: SH-SY5Y and HeLa
Procedure: Determination of the direct activity of compounds on NAMPT was performed using a commercial kit, Cyclex NAMPT colorimetric Assay Kit.

[1] = tested on: spinal cord injury in male adult CD1 mice; test: Spinal cord injury by clip compression, motor function; type: in vivo; details: i.p. one and 6 hours post injury
Procedure: Male adult CD1 mice (25-30 g, Harlan Nossan, Milan, Italy) were used for all studies. Mice were housed in individual cages (5 for each group) and maintained under 12:12 light-dark cycle at 21±1° C. and 50±5% humidity.
Spinal cord injury (SCI) was induced in male adult mice by the clip compression technique (Genovese et al. J. Pharmacol. Exp. Ther. 2008a, 325, 100-14). SHAM-operated animals were taken as control. Drugs were given i.p. one and 6 hours post injury. Animal care was in compliance with Italian regulations on protection of animals used for experimental and other scientific purpose (D.M. 116192) and with the EEC regulations (O.J. of E.C. L 358/1 Dec. 18, 1986). Animals were sacrificed at post-injury (at least five animals/experimental group were analysed).
The motor function of mice subjected to SCI was assessed once a day for 7 days after injury.
The evaluations were made by two blind observers for all analyzed groups.
Briefly, the BMS is a nine-point scale that pro vides a gross indication of locomotor ability and determines the phases of locomotor recovery and features of locomotion. The BMS score was determined for ten mice in each group. Spinal cord tissues were taken at 24 hours after trauma. Tissue was used for histological grading of the damage or for immunocytochemistry with inflammation, cell death or autophagy markers.
As previously described, the spinal cord of male adult CD1 mice was injured by the clip compression technique, compound of formula (I) was administered and the motor function was assessed.

[2] = tested on: Dextran-induced colitis in C57/BJ6 mice; test: Experimental colitis induced by dextran sulfate sodium (DSS); type: in vivo; details: i.p., doses of between 20 mg/Kg and 500 mg/Kg
Procedure: Animal work was authorized by the local ethical committee for animal studies (Università del Piemonte Orientale). Colitis was induced in C57/BJ6 mice (Harlan Nossan, Milan, Italy) by addition of DSS (2%) to their daily drinking water for 7 days followed by a 3-day recovery period without DSS. The severity of colitis was assessed using these set of criteria: (1) clinical index (daily changes in body weight; diarrhea and rectal bleeding); (2) macroscopic evidence of colitis (shortening of colon length). On day 10 of the experiment, animals were sacrificed. Treatments were performed with either solvent alone or drugs once a day for the entire duration of the experiments from day 1 to day 7. The colon lengths were measured and colon tissues were harvested for biochemical measurements, histopathological assessment and scoring. (Tang Y, Preuss F, Turek F W, Jakate S, Keshavarzian A. Sleep deprivation worsens inflammation and delays recovery in a mouse model of colitis. Sleep Med. 2009 June; 10(6):597-603).
As previously described, the colon of DNBS- or dextran treated animals was removed after the induction of colitis. Compounds of formula (I) were administered intraperitoneally (i.p.).

[3] = Microsomal stability with rat liver microsomes; type: in vitro ADME, Male Wistar rat; details: 50 μM substrate, 1.0 mg/mL protein, 60 minutes at 37° C., pH 7.4
Procedure: (§1) Male Wistar rat liver microsomes (RLM), (protein concentration: 25 mg/ml determined using the Omura and Sato method, total P450: 0.64 nmol/mg protein) were used throughout this study and prepared using an internal protocol. The cryopreserved pooled human liver microsomes (HLM), (pooled mixed sex, ten individual donors, protein concentration: 20 mg/ml, total P450: 0.36 nmol/mg) were purchased from BD Gentest™ (Woburn, Mass.) and used throughout this study.
(§2) The standard incubation mixture (1 ml final volume), was carried out in a 50 mM TRIS (Tris[hydroxymethyl]aminomethane) buffer (pH 7.4) containing 10 μl of acetonitrile (1% of total volume), and 50 μM substrate compounds. After pre-equilibration of the mixture, an appropriate volume of RLM or HLM suspension was added to give a final protein concentration of 1.0 mg/mL. The mixture was shaken for 60 minutes at 37° C. Control incubations were carried out without microsomes. Each incubation was stopped by addition of 1 ml ice-cold acetonitrile, vortexed and centrifuged at 11,000 r.p.m. for 5 min. The supernatants were analysed by LC-DAD-UV and LC-ESI-MS systems to determine the metabolic stability (% substrate residue) and the structure of metabolites respectively (Table 1).
(§3) A Shimadzu HPLC system (Shimadzu, Kyoto, Japan), consisting of two LC-10AD Vp module pumps, an SLC-10A Vp system controller, an SIL-10AD Vp autosampler, and a DGU-14-A on-line degasser were used for the analysis. Chromatographic separation was performed on a Phenomenex Luna C18(2) 150×4.6 mm (5 μm) (Phenomenex srl, Castel Bolognese, Italy) as a stationary phase protected by a C18 SecurityGuard (Phenomenex srl, Castel Bolognese, Italy). The SPD-M10Avp photodiode array detector was used to detect the analytes. LC-Solution 1.24 software was used to process the chromatograms. Aliquots (20 μL) of supernatants obtained from incubations were injected onto the HPLC system and eluted with a mobile phase (flow rate 1.0 mL/min) consisting of a A: 0.5% formic acid solution, B: acetonitrile/methanol 8:2. A Thermo Finningan LCQ Deca XP plus system equipped with a quaternary pump, a Surveyor AS autosampler, a Surveyor photodiode array detector and a vacuum degasser was used for LC/MS analyses (Thermo Electron Corporation, Waltham, Mass.). All the chromatographic separations were performed on a Phenomenex Luna C18(2)150×2 mm (4 μm) (kept at a 35° C.) as a stationary phase protected by a C18 SecurityGuard (Phenomenex srl, Castel Bolognese, Italy). Aliquots (2.0 μl) of supernatants obtained from incubations were injected onto the system and eluted with a mobile phase (flow rate 0.2 ml/min) consisting of a A: 0.2% formic acid solution, B: acetonitrile/methanol 8:2. The eluate was injected into the electrospray ion source (ESI) and MS and MS^n spectra were acquired and processed using Xcalibur® software. The operating conditions on the ion trap mass spectrometer were as follows: Positive mode, spray voltage, 5.30 kV; source current, 80 μA; capillary temperature, 350° C.; capillary voltage, 21.00 V; tube lens offset, 15.00 V; multipole 1 offset, −5.75 V; multipole 2 offset, −9.00 V; sheath gas flow (N2), 55 Auxiliary Units.

[4] = Microsomal stability with human liver microsomes; type: in vitro ADME; details: 50 μM substrate, 1.0 mg/mL protein, 60 minutes at 37° C., pH 7.4
Procedure: as §1, §2, §3

T1 sequence (P43490 whole entry): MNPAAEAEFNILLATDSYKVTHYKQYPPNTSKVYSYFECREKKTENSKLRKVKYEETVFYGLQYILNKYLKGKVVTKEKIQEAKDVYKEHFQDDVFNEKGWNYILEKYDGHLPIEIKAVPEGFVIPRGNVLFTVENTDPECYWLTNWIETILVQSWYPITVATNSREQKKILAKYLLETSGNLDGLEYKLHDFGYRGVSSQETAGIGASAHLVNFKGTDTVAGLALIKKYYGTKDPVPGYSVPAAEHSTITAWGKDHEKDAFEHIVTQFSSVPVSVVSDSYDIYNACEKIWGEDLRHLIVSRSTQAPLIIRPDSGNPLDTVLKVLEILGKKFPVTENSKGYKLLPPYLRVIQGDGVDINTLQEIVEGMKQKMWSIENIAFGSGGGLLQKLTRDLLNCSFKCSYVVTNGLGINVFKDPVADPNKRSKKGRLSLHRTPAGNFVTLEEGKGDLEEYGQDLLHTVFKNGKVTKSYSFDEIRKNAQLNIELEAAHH

inhibition of the enzymatic activity of NAMPT (NAMPT) | RLM stability % substrate residue (area peak) [3] [%] | HLM stability % substrate residue (area peak) [4] [%] | SMILES | motor recovery [1] | protection from injury [1] | protection from Dextran-induced colitis as assessed by the macroscopic damage score [2]
able to inhibit | >98 | >96 | c1ccc(-c2ccccc2OCCCCCCn2cc(-c3cccnc3)nn2)cc1 [3-(1-(6-([1,1′-biphenyl]-2-yloxy)hexyl)-1H-1,2,3-triazol-4-yl)pyridine] | partial motor recovery | partially protect from injury | able to protect
able to inhibit | >99 | >99 | O=C(NCCCCCCCn1cc(-c2cccnc2)nn1)c1ccccc1-c1ccccc1 [N-(7-(4-(pyridin-3-yl)-1H-1,2,3-triazol-1-yl)heptyl)-[1,1′-biphenyl]-2-carboxamide] | partial motor recovery | partially protect from injury | able to protect
